Assay: xn = mol fraction of the nth substance listed
Settings: 100 kPa, Liquid; for viscosity: Capillary tube (Ostwald / Ubbelohde) method

COC(C)(C)C [2-methoxy-2-methylpropane] + CCCCCCCC
Settings	mass density [kg/m3]	viscosity [mPa·s]
298.15 K, x1 = 0.8975	729.408	–
303.15 K, x1 = 0.1019	–	0.468
303.15 K, x1 = 0.1059	696.633	–
303.15 K, x1 = 0.2123	699.177	–
303.15 K, x1 = 0.2189	–	0.447
303.15 K, x1 = 0.3019	701.546	–
303.15 K, x1 = 0.3026	–	0.43
303.15 K, x1 = 0.4029	–	0.414
303.15 K, x1 = 0.4099	704.666	–
303.15 K, x1 = 0.4995	–	0.397
303.15 K, x1 = 0.5053	707.798	–
303.15 K, x1 = 0.6005	711.146	–
303.15 K, x1 = 0.6099	–	0.382
303.15 K, x1 = 0.6934	714.806	–
303.15 K, x1 = 0.7072	–	0.367
303.15 K, x1 = 0.7967	719.238	–
303.15 K, x1 = 0.8975	724.303	–
308.15 K, x1 = 0.1019	–	0.443
308.15 K, x1 = 0.1059	692.484	–
308.15 K, x1 = 0.2123	694.926	–
308.15 K, x1 = 0.2189	–	0.425
308.15 K, x1 = 0.3019	697.212	–
308.15 K, x1 = 0.3026	–	0.409
308.15 K, x1 = 0.4029	–	0.393
308.15 K, x1 = 0.4099	700.213	–
308.15 K, x1 = 0.4995	–	0.376
308.15 K, x1 = 0.5053	703.231	–
308.15 K, x1 = 0.6005	706.458	–
308.15 K, x1 = 0.6099	–	0.362
308.15 K, x1 = 0.6934	709.988	–
308.15 K, x1 = 0.7967	714.261	–
308.15 K, x1 = 0.8975	719.151	–
313.15 K, x1 = 0.1019	–	0.42
313.15 K, x1 = 0.1059	688.303	–
313.15 K, x1 = 0.2123	690.652	–
313.15 K, x1 = 0.2189	–	0.402
313.15 K, x1 = 0.3019	692.842	–
313.15 K, x1 = 0.3026	–	0.387
313.15 K, x1 = 0.4029	–	0.374
313.15 K, x1 = 0.4099	695.728	–
313.15 K, x1 = 0.4995	–	0.358
313.15 K, x1 = 0.5053	698.629	–
313.15 K, x1 = 0.6005	701.736	–
313.15 K, x1 = 0.6934	705.127	–
313.15 K, x1 = 0.7967	709.24	–
313.15 K, x1 = 0.8975	713.95	–
318.15 K, x1 = 0.1019	–	0.398
318.15 K, x1 = 0.1059	684.108	–
318.15 K, x1 = 0.2123	686.345	–
318.15 K, x1 = 0.2189	–	0.381
318.15 K, x1 = 0.3019	688.444	–
318.15 K, x1 = 0.3026	–	0.367
318.15 K, x1 = 0.4029	–	0.355
318.15 K, x1 = 0.4099	691.207	–
318.15 K, x1 = 0.5053	693.985	–
318.15 K, x1 = 0.6005	696.968	–
318.15 K, x1 = 0.6934	700.224	–
318.15 K, x1 = 0.7967	704.169	–
318.15 K, x1 = 0.8975	708.696	–
323.15 K, x1 = 0.1019	–	0.377
323.15 K, x1 = 0.1059	679.876	–
323.15 K, x1 = 0.2123	682.017	–
323.15 K, x1 = 0.2189	–	0.361
323.15 K, x1 = 0.3019	684.017	–
323.15 K, x1 = 0.3026	–	0.349
323.15 K, x1 = 0.4099	686.655	–
323.15 K, x1 = 0.5053	689.306	–
323.15 K, x1 = 0.6005	692.159	–
323.15 K, x1 = 0.6934	695.271	–
323.15 K, x1 = 0.7967	699.039	–
328.15 K, x1 = 0.1019	–	0.359
328.15 K, x1 = 0.1059	675.617	–
328.15 K, x1 = 0.2123	677.665	–
328.15 K, x1 = 0.2189	–	0.344
328.15 K, x1 = 0.3019	679.549	–
328.15 K, x1 = 0.4099	682.067	–
328.15 K, x1 = 0.5053	684.587	–
328.15 K, x1 = 0.6005	687.304	–
328.15 K, x1 = 0.6934	690.272	–
333.15 K, x1 = 0.1019	–	0.342
333.15 K, x1 = 0.1059	671.333	–
333.15 K, x1 = 0.2123	673.25	–
333.15 K, x1 = 0.3019	675.046	–
333.15 K, x1 = 0.4099	677.434	–
333.15 K, x1 = 0.5053	679.825	–
333.15 K, x1 = 0.6005	682.397	–
338.15 K, x1 = 0.1059	667.018	–
338.15 K, x1 = 0.2123	668.815	–
338.15 K, x1 = 0.3019	670.514	–
338.15 K, x1 = 0.4099	672.758	–
343.15 K, x1 = 0.1059	662.68	–
343.15 K, x1 = 0.2123	664.349	–
343.15 K, x1 = 0.3019	665.923	–
343.15 K, x1 = 0.4099	668.038	–
348.15 K, x1 = 0.1059	658.279	–
348.15 K, x1 = 0.2123	659.83	–
348.15 K, x1 = 0.3019	661.299	–
353.15 K, x1 = 0.1059	653.843	–
353.15 K, x1 = 0.2123	655.28	–
353.15 K, x1 = 0.3019	656.638	–
358.15 K, x1 = 0.1059	649.405	–
358.15 K, x1 = 0.2123	650.681	–
358.15 K, x1 = 0.3019	651.917	–
363.15 K, x1 = 0.1059	644.85	–
363.15 K, x1 = 0.2123	646.031	–
363.15 K, x1 = 0.3019	647.14	–

From the NIST ThermoML archive (doi:10.1021/je600554h)
